The target in experiment [1] is Human immunodeficiency virus type 1 integrase (Human immunodeficiency virus 1, UniProt Q7ZJM1). Briefly: Inhibitory concentration against HIV-1 integrase.
Experiment [2] is described as follows: Antiviral activity against HIV-1 1 early replicative steps in HeLa-bgal- CD4+ (P4) reporter cells. The format is functional. The conditions noted are these: Human immunodeficiency virus 1.

Each structure is given as a SMILES string. pEC50, pIC50: −log10 of the molar value.

Human immunodeficiency virus type 1 integrase, sequence (Q7ZJM1 whole entry): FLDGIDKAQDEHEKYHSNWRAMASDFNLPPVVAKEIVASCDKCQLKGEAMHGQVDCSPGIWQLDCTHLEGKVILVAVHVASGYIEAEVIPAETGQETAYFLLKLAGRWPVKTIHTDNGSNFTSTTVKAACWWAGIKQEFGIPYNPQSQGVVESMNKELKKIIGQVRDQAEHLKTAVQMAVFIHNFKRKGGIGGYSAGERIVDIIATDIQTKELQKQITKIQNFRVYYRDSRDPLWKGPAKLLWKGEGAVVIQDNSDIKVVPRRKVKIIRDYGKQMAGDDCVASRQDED

Turning to `O=C(O)/C=C/c1ccc(O)c(Oc2cc3cc(O)c(O)cc3oc2=O)c1`, the pIC50 (in general, the IC50 on a negative log10 scale, so that one unit is a factor of ten) in experiment [1] is 6.00. Besides, in experiment [2], the pEC50 (usually −log10 of the EC50, conventionally taken in molar units) is 4.51.

Take `O=C(O)/C=C/c1ccc(Oc2cc3cc(O)c(O)cc3oc2=O)c(O)c1`: the pIC50 in experiment [1] was 5.70. The molecule further showed a pEC50 in experiment [2] of 4.43.

In experiment [1], `O=c1oc2cc(O)c(O)cc2cc1O` had a pIC50 of 5.70. The same molecule had a pEC50 in experiment [2] of 4.92.

Source of the values: ChEMBL document CHEMBL1143646, “Synthesis and HIV-1 integrase inhibitory activities of caffeic acid dimers derived from Salvia officinalis” (Bioorg Med Chem Lett, 2005).
